Test results taken from US20240368133A1, “Compounds for the Treatment of Pain, in Particular, Neuropathic Pain, and/or Other Diseases or Disorders that are Associated with AT2R and/or AT2R Mediated Signaling” (Confo Therapeutics N.V., priority 2021, published 2024).

How the values were obtained:
human AT2R fused to Cb23 = human AT2R fused to Cb23 (Homo sapiens, UniProt P50052); assay: Radioligand binding assay, displacement of 125I-[Sar1, Ile8]-Angiotensin II, hAT2R Cb23; conditions: displacement of 125I-[Sar1, Ile8]-Angiotensin II, human AT2R fused to Cb23, HEK-293 cell membrane preparations; read-out: Binding affinity on hAT2R_Cb23 IC50
Method in brief: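 Membranes from HEK-293 cells expressing human AT2R fused to Cb23 were incubated with 0.05 nM 125I-[Sar1, Ile8]-Angiotensin II in 100 μL buffer (50 mM Tris, 5 mM MgCl2, 1 mM EDTA, 0.1% BSA, pH 7.4) for one hour at 25° C. Ligands were tested as eight-point dose-response curves in duplicate, with C21 and Angiotensin II as references.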

human AT1R = human AT1R (Homo sapiens (Human), UniProt P30556); assay: Counterscreen radioligand binding assay, displacement of 125I-[Sar1, Ile8]-Angiotensin II, hAT1R WT; conditions: 125I-[Sar1, Ile8]-Ang II, semi-quantitative score; for inhibition at 1 µM: compound at 1 μM, read-out: % Displaced radioligand at 1 μM; for inhibition at 10 µM: compound at 10 μM, read-out: % Displaced radioligand at 10 μM
Method in brief: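 Membranes from HEK-293 cells expressing human AT1R were incubated for one hour at 25° C, pH 7.4, with 0.05 nM radiolabelled [Sar1, Ile8]-Ang II and test ligand. Bound radioactivity was collected on PEI-soaked filters, with 10 μM unlabelled [Sar1]-Ang II defining non-specific binding. Results are percent displacement at 1 μM and […], or IC50 from eight-point duplicate curves.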

Chain of human AT2R fused to Cb23 (P50052 whole entry, looked up, the tested form may be a part): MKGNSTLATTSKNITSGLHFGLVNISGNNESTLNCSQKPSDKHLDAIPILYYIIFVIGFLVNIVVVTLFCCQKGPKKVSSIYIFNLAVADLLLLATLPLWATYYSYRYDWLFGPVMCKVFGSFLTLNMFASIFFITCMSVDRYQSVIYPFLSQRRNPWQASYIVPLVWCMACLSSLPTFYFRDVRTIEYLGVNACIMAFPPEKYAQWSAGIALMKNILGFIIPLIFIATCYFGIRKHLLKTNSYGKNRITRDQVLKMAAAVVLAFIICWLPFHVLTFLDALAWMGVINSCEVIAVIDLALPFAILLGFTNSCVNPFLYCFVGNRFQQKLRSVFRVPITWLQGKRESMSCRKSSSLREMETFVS
Chain of human AT1R (P30556 whole entry): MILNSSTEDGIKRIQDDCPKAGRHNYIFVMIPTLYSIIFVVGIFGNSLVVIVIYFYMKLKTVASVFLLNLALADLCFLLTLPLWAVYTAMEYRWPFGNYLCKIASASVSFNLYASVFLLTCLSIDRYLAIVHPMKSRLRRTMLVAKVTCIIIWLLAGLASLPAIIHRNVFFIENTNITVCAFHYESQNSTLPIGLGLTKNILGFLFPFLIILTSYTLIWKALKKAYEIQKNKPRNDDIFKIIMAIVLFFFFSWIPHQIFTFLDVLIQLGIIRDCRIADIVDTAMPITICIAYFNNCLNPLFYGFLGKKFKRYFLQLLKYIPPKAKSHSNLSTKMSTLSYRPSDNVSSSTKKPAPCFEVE

CC(C)Cc1cc(N2CCN(Cc3cccnn3)CC2)c(-c2nn[nH]n2)cc1F [Compound A-163, 3-[[4-[4-fluoro-5-isobutyl-2-(2H-tetrazol-5-yl)phen-yl]piperazin-1-yl]-methyl]pyridazine]
IC50 (human AT2R fused to Cb23): 3.32 µM | inhibition at 1 µM (human AT1R): < 30% | inhibition at 10 µM (human AT1R): < 30%

CC(C)Cc1cc(F)c(-c2nn[nH]n2)c(N2CCN(Cc3cccnn3)CC2)c1 [Compound A-164, 3-[[4-[3-fluoro-5-isobutyl-2-(2H-tetrazol-5-yl)phen-yl]piperazin-1-yl]-methyl]pyridazine]
IC50 (human AT2R fused to Cb23): 1.3 µM | inhibition at 1 µM (human AT1R): < 30% | inhibition at 10 µM (human AT1R): < 30%

CC(C)Cc1ccc(-c2nn[nH]n2)c(N2CCN(Cc3cccnn3)CC2)c1F [Compound A-165, 3-[[4-[2-fluoro-3-isobutyl-6-(2H-tetrazol-5-yl)phen-yl]piperazin-1-yl]-methyl]pyridazine]
IC50 (human AT2R fused to Cb23): 0.681 µM | inhibition at 1 µM (human AT1R): < 30% | inhibition at 10 µM (human AT1R): < 30%

Cc1cc(CC(C)C)cc(N2CCN(Cc3cccnn3)CC2)c1-c1nn[nH]n1 [Compound A-167, 3-[[4-[5-isobutyl-3-methyl-2-(2H-tetrazol-5-yl)phen-yl]piperazin-1-yl]-methyl]pyridazine]
IC50 (human AT2R fused to Cb23): 0.0326 µM | inhibition at 1 µM (human AT1R): < 30% | inhibition at 10 µM (human AT1R): < 30%

CC(C)Cc1cc(C2CC2)c(-c2nn[nH]n2)c(N2CCN(Cc3cccnn3)CC2)c1 [Compound A-169, 3-[[4-[3-cycloprop-yl-5-isobutyl-2-(2H-tetrazol-5-yl)phen-yl]piperazin-1-yl]-methyl]pyridazine]
IC50 (human AT2R fused to Cb23): 0.0253 µM | inhibition at 1 µM (human AT1R): < 30% | inhibition at 10 µM (human AT1R): < 30%

CNc1cc(-c2nn[nH]n2)c(N2CCN(Cc3cccnn3)CC2)cc1CC(C)C [Compound A-170, 2-isobutyl-N-meth-yl-4-[4-(pyridazin-3-ylmethyl)piper-azin-1-yl]-5-(2H-tetrazol-5-yl)aniline]
IC50 (human AT2R fused to Cb23): 12.1 µM | inhibition at 1 µM (human AT1R): < 30% | inhibition at 10 µM (human AT1R): < 30%

CNc1cc(CC(C)C)cc(N2CCN(Cc3cccnn3)CC2)c1-c1nn[nH]n1 [Compound A-171, 5-isobutyl-N-meth-yl-3-[4-(pyridazin-3-ylmethyl)piper-azin-1-yl]-2-(2H-tetrazol-5-yl)aniline]
IC50 (human AT2R fused to Cb23): 0.0158 µM | inhibition at 1 µM (human AT1R): < 30% | inhibition at 10 µM (human AT1R): < 30%

CCNc1cc(-c2nn[nH]n2)c(N2CCN(Cc3cccnn3)CC2)cc1CC(C)C [Compound A-172, N-ethyl-2-isobutyl-4-[4-(pyridazin-3-ylmethyl)piperazin-1-yl]-5-(2H-tetrazol-5-yl)aniline]
IC50 (human AT2R fused to Cb23): 3.52 µM | inhibition at 1 µM (human AT1R): < 30% | inhibition at 10 µM (human AT1R): < 30%

CC(C)Cc1cc(F)c(-c2nn[nH]n2)c(N2CCN(Cc3cccnn3)[C@H](C)C2)c1 [Compound A-175, 3-[[(2R)-4-[3-fluoro-5-isobutyl-2-(2H-tetrazol-5-yl)phenyl]-2-meth-yl-piperazin-1-yl]-methyl]pyridazine]
IC50 (human AT2R fused to Cb23): 0.322 µM | inhibition at 1 µM (human AT1R): < 30% | inhibition at 10 µM (human AT1R): < 30%

CC(C)Cc1ccc(-c2nn[nH]n2)c(N2CCN(Cc3cccnn3)[C@@H](C)C2)c1F [Compound A-176, 3-[[(2S)-4-[2-fluoro-3-isobutyl-6-(2H-tetrazol-5-yl)phenyl]-2-methyl-piperazin-1-yl]methyl]pyridazine]
IC50 (human AT2R fused to Cb23): 0.0287 µM | inhibition at 1 µM (human AT1R): < 30% | inhibition at 10 µM (human AT1R): < 30%

CC(C)Cc1cnc(-c2nn[nH]n2)c(N2CCN(Cc3cccnn3)[C@@H](C)C2)c1 [Compound A-177, 3-[[(2S)-4-[5-isobutyl-2-(2H-tetrazol-5-yl)-3-pyridyl]-2-methyl-piperazin-1-yl]methyl]pyridazine]
IC50 (human AT2R fused to Cb23): 0.585 µM | inhibition at 1 µM (human AT1R): < 30% | inhibition at 10 µM (human AT1R): < 30%

CC(C)Cc1cc(F)c(-c2nn[nH]n2)c(N2CCN(Cc3cccnn3)C(C(C)C)C2)c1 (stereo not drawn) [Compound A-179, 3-[[4-[3-fluoro-5-isobutyl-2-(2H-tetrazol-5-yl)phenyl]-2-isopropyl-piperazin-1-yl]methyl]pyridazine]
IC50 (human AT2R fused to Cb23): 0.953 µM | inhibition at 1 µM (human AT1R): < 30% | inhibition at 10 µM (human AT1R): < 30%

CC(C)Cc1cc(F)c(-c2nn[nH]n2)c(N2CCN(Cc3cccnn3)CC2C)c1 (stereo not drawn) [Compound A-180, 3-[[4-[3-fluoro-5-isobutyl-2-(2H-tetrazol-5-yl)phenyl]-3-methyl-piperazin-1-yl]methyl]pyridazine]
IC50 (human AT2R fused to Cb23): 0.00395 µM | inhibition at 1 µM (human AT1R): < 30% | inhibition at 10 µM (human AT1R): < 30%

CC(C)Cc1cc(F)c(-c2nn[nH]n2)c(N2CCN(Cc3cccnn3)C(C)(C)C2)c1 [Compound A-182, 3-[[4-[3-fluoro-5-isobutyl-2-(2H-tetrazol-5-yl)phenyl]-2,2-dimethyl-piperazin-1-yl]methyl]pyridazine]
IC50 (human AT2R fused to Cb23): 0.0186 µM | inhibition at 1 µM (human AT1R): < 30% | inhibition at 10 µM (human AT1R): < 30%

CC(C)Cc1cc(F)c(-c2nn[nH]n2)c(N2C[C@@H](C)N(Cc3cccnn3)[C@H](C)C2)c1 [Compound A-185, 3-[[(2R,6R)-4-[3-fluoro-5-isobutyl-2-(2H-tetrazol-5-yl)-phenyl]-2,6-dimeth-yl-piperazin-1-yl]-methyl]pyridazine]
IC50 (human AT2R fused to Cb23): 0.0696 µM | inhibition at 1 µM (human AT1R): < 30% | inhibition at 10 µM (human AT1R): < 30%

CC(C)Cc1cc(F)c(-c2nn[nH]n2)c(N2C[C@@H](C)N(Cc3cccnn3)[C@@H](C)C2)c1 [Compound A-186, 3-[[(2S,6R)-4-[3-fluoro-5-isobutyl-2-(2H-tetrazol-5-yl)-phenyl]-2,6-dimeth-yl-piperazin-1-yl]-methyl]pyridazine]
IC50 (human AT2R fused to Cb23): 0.0183 µM | inhibition at 1 µM (human AT1R): < 30% | inhibition at 10 µM (human AT1R): < 30%

CC(C)Cc1cc(F)c(-c2nn[nH]n2)c(N2C[C@H](C)N(Cc3cccnn3)[C@@H](C)C2)c1 [Compound A-187, 3-[[(2S,6S)-4-[3-fluoro-5-isobutyl-2-(2H-tetrazol-5-yl)-phenyl]-2,6-dimeth-yl-piperazin-1-yl]-methyl]pyridazine]
IC50 (human AT2R fused to Cb23): 0.00726 µM | inhibition at 1 µM (human AT1R): < 30% | inhibition at 10 µM (human AT1R): < 30%

CC(C)Cc1cc(F)c(-c2nn[nH]n2)c(N2CCN(Cc3cccnn3)C(C)C2C)c1 (stereo not drawn) [Compound A-188, 3-[[4-[3-fluoro-5-isobutyl-2-(2H-tetrazol-5-yl)phen-yl]-2,3-dimethyl-piperazin-1-yl]-methyl]pyridazine]
IC50 (human AT2R fused to Cb23): 0.0139 µM | inhibition at 1 µM (human AT1R): < 30% | inhibition at 10 µM (human AT1R): < 30%

CC(C)Cc1cc(F)c(-c2nn[nH]n2)c(N2CC3CC2CN3Cc2cccnn2)c1 (stereo not drawn) [Compound A-189, 2-[3-fluoro-5-isobutyl-2-(2H-tetrazol-5-yl)phen-yl]-5-(pyridazin-3-ylmethyl)-2,5-di-azabicyclo[2.2.1]-heptane]
IC50 (human AT2R fused to Cb23): 2.65 µM | inhibition at 1 µM (human AT1R): < 30% | inhibition at 10 µM (human AT1R): < 30%

CC(C)Cc1cc(F)c(-c2nn[nH]n2)c(N2CC3CCC(C2)N3Cc2cccnn2)c1 [Compound A-190, 3-[3-fluoro-5-isobutyl-2-(2H-tetrazol-5-yl)phen-yl]-8-(pyridazin-3-ylmethyl)-3,8-diaza-bicyclo[3.2.1]octane]
IC50 (human AT2R fused to Cb23): 1.35 µM | inhibition at 1 µM (human AT1R): < 30% | inhibition at 10 µM (human AT1R): < 30%

CC(C)Cc1cc(F)c(-c2nn[nH]n2)c(N2CCN(Cc3cc(Cl)ccn3)CC2)c1 [Compound A-191, 1-[(4-chloro-2-pyridyl)methyl]-4-[3-fluoro-5-isobutyl-2-(2H-tetrazol-5-yl)phenyl]piperazine]
IC50 (human AT2R fused to Cb23): 0.0531 µM | inhibition at 1 µM (human AT1R): < 30% | inhibition at 10 µM (human AT1R): < 30%

CC(C)Cc1cc(F)c(-c2nn[nH]n2)c(N2CCN(Cc3ccc(Cl)cn3)CC2)c1 [Compound A-192, 1-[(5-chloro-2-pyridyl)methyl]-4-[3-fluoro-5-isobutyl-2-(2H-tetrazol-5-yl)phenyl]piperazine]
IC50 (human AT2R fused to Cb23): 0.519 µM | inhibition at 1 µM (human AT1R): < 30% | inhibition at 10 µM (human AT1R): < 30%

CC(C)Cc1cc(F)c(-c2nn[nH]n2)c(N2CCN(Cc3ncccc3Cl)CC2)c1 [Compound A-193, 1-[(3-chloro-2-pyridyl)methyl]-4-[3-fluoro-5-isobutyl-2-(2H-tetrazol-5-yl)phenyl]piperazine]
IC50 (human AT2R fused to Cb23): 0.389 µM | inhibition at 1 µM (human AT1R): < 30% | inhibition at 10 µM (human AT1R): < 30%

COc1ccc(CN2CCN(c3cc(CC(C)C)cc(F)c3-c3nn[nH]n3)CC2)nc1 [Compound A-194, 1-[3-fluoro-5-isobutyl-2-(2H-tetrazol-5-yl)phenyl]-4-[(5-methoxy-2-pyridyl)methyl]piperazine]
IC50 (human AT2R fused to Cb23): 0.737 µM | inhibition at 1 µM (human AT1R): < 30% | inhibition at 10 µM (human AT1R): < 30%

CC(C)Cc1cc(F)c(-c2nn[nH]n2)c(N2CCN(Cc3ccc(F)cn3)CC2)c1 [Compound A-195, 1-[3-fluoro-5-isobutyl-2-(2H-tetrazol-5-yl)phen-yl]-4-[(5-fluoro-2-pyridyl)methyl]-piperazine]
IC50 (human AT2R fused to Cb23): 0.537 µM | inhibition at 1 µM (human AT1R): < 30% | inhibition at 10 µM (human AT1R): < 30%

CC(C)Cc1cc(F)c(-c2nn[nH]n2)c(N2CCN(Cc3ncccc3F)CC2)c1 [Compound A-196, 1-[3-fluoro-5-isobutyl-2-(2H-tetrazol-5-yl)phen-yl]-4-[(3-fluoro-2-pyridyl)methyl]-piperazine]
IC50 (human AT2R fused to Cb23): 0.631 µM | inhibition at 1 µM (human AT1R): < 30% | inhibition at 10 µM (human AT1R): < 30%

Cc1cnc(CN2CCN(c3cc(CC(C)C)cc(F)c3-c3nn[nH]n3)CC2)c(C)c1 [Compound A-197, 1-[(3,5-dimethyl-2-pyridyl)methyl]-4-[3-fluoro-5-isobutyl-2-(2H-tetrazol-5-yl)phenyl]piperazine]
IC50 (human AT2R fused to Cb23): 0.203 µM | inhibition at 1 µM (human AT1R): < 30% | inhibition at 10 µM (human AT1R): < 30%
